Measurements reported in ChEMBL document CHEMBL1201862, “PubChem BioAssay data set” (2004).
The source made the active and inactive calls.

Experiments:
Troponin, cardiac muscle = Troponin, cardiac muscle (Homo sapiens, UniProt P19429+P45379+P63316); test: Fluorescence-based biochemical high throughput dose response assay for activators of the calcium sensitivity of cardiac Regulated Thin Filaments (RTF). [Related pubchem assays (depositor defined):AID493008, AID493018, AID504382, AID504383]; assay type: protein-complex assay
Streptokinase A = biological target: T1, Streptokinase A (Streptococcus pyogenes serotype M1, UniProt P10520); test: viability-normalized secreted streptokinase activity reduction – plasminogen activation absorbance, OD405, dose response (AID 1914); assay type: functional, Streptococcus pyogenes M1 GAS;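 note: secreted streptokinase activity via plasminogen activation per viability signal from cell pellet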
T1 sequence (P10520 whole entry): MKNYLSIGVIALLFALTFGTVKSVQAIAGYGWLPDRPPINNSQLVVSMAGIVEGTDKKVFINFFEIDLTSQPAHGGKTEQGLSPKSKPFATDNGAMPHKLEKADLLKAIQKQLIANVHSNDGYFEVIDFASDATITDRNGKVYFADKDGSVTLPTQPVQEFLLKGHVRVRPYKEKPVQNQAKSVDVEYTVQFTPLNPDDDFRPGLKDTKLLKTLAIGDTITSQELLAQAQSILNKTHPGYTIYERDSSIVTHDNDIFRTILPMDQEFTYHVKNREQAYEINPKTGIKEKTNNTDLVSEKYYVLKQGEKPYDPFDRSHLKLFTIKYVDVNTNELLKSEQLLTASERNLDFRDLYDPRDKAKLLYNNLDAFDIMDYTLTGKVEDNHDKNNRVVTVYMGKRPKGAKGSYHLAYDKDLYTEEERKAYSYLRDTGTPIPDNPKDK

[1] = biological target: T2, Corticotropin-releasing factor receptor 2/Corticotropin-releasing factor-binding protein (Homo sapiens, UniProt P24387+Q13324); test: activators of CRF receptor 2 with binding protein – uHTS hits, confirmation (AID 602473); assay type: functional; details: read-out: EC50_Mean
T2 sequence (Q13324 whole entry): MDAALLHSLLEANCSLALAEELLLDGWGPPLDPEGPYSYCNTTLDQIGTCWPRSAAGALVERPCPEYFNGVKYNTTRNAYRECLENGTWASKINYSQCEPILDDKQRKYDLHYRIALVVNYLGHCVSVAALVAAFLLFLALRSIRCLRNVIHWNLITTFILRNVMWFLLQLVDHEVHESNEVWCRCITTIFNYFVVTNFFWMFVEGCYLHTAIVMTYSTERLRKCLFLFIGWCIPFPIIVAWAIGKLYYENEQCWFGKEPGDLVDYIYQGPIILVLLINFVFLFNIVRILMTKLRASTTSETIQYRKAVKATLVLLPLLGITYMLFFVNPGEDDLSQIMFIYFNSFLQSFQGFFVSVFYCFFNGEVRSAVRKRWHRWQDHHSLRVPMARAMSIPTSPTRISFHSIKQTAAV
T2 sequence (P24387 whole entry): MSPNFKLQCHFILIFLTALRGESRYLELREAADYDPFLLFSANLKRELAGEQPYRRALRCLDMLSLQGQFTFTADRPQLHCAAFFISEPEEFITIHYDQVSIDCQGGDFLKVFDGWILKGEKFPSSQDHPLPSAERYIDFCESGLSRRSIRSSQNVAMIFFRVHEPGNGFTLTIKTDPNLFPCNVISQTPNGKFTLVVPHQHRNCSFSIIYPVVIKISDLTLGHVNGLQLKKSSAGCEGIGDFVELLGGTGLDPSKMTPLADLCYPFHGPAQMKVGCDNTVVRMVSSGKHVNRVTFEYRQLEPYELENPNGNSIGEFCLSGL

[2] = HepG2 cell cytotoxicity, dose response, cytotoxicity control for non-replicating M. tuberculosis project (AID 489018); assay type: functional; details: Mycobacterium tuberculosis
[3] = test system: Streptococcus sp. 'group A'; test: Streptococcus pyogenes SK(-)GAS viability under kanamycin – luminescence, BacTiterGlo, confirmation, counter-screen for streptokinase expression inhibitor project, dose response (AID 1900); assay type: functional, organism-based
cells = assay type: functional
[4] = biological target: T3, Short transient receptor potential channel 4 (Mus musculus, UniProt Q9QUQ5); test: calcium entry via TRPC4 opening agents – cell-based, HEK293 TRPC4/mu-opioid, Fluo-4 calcium, dose response (AID 434937); assay type: functional
T3 sequence (Q9QUQ5 whole entry): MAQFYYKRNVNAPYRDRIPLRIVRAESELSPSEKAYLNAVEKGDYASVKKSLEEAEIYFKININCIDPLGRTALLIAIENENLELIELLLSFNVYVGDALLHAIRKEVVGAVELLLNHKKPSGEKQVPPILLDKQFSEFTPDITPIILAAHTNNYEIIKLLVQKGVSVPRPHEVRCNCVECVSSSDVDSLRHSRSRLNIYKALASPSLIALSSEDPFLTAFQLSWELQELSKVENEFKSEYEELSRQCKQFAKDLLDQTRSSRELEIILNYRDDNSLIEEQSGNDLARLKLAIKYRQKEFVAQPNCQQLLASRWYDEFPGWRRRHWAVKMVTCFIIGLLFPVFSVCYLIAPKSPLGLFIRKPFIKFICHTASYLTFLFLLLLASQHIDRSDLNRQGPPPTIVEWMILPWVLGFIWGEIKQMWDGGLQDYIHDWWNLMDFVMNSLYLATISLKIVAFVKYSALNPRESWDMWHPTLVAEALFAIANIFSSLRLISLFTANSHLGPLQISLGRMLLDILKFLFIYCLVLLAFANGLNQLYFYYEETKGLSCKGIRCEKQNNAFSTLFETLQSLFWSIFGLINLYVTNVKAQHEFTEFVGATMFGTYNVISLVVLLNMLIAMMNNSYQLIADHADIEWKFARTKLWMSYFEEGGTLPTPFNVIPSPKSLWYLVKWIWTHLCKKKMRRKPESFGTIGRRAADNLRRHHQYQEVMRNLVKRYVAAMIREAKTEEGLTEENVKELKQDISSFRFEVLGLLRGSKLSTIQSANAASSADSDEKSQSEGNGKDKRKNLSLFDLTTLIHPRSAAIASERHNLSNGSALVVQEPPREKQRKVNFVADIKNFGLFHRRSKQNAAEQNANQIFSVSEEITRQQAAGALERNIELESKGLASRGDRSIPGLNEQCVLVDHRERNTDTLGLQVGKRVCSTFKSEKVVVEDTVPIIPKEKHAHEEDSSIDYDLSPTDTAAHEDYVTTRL

[5] = Vero E6 cell cytotoxicity, dose response, cytotoxicity control for non-replicating M. tuberculosis project, secondary assay (AID 492998); assay type: functional, VeroE6; details: Vero C1008
Streptococcus = test: GAS UMAA2166 growth inhibition – luminescence, BacTiterGlo, counter-screen for streptokinase expression inhibitor project, dose response (AID 1915); assay type: functional, organism-based;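 note: potency for reduction of bacterial viability or growth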
[6] = THP-1 cell cytotoxicity, dose response, cytotoxicity control for non-replicating M. tuberculosis project (AID 489025); assay type: functional
Vero = test: cells; assay type: functional; details: Chlorocebus sabaeus
[7] = biological target: Delta-type opioid receptor (Homo sapiens, UniProt P41143); test: SAR Analysis of Antagonists of the DOR Receptor using an Image-Based Assay - Set 3. [Related pubchem assays (depositor defined):AID1777, AID1785]; assay type: functional;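 note: U2OS cells expressing DOR1 and beta-arrestin GFP stimulated with 100 nM SNC80; imaging of GFP-tagged beta-arrestin moving into spots after receptor activation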
Delta-type opioid receptor, sequence (P41143 whole entry): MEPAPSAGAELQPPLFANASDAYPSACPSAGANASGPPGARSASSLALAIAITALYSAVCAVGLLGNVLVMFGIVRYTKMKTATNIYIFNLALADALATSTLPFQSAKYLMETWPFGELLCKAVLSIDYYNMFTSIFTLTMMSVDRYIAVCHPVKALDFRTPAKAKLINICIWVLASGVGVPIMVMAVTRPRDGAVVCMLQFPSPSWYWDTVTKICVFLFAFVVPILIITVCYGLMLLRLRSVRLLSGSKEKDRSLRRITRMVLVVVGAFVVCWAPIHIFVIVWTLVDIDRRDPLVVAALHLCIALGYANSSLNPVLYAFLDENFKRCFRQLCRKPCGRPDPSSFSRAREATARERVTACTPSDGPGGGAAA

Mu-type opioid receptor = Mu-type opioid receptor (Homo sapiens, UniProt P35372); test: SAR Analysis of Antagonists of the MOR Receptor using an Image-Based Assay - Set 3. [Related pubchem assays (depositor defined):AID1777, AID1785, AID1786, AID1966, AID2133, AID2136, AID2284, AID2285, AID2420]; assay type: functional
Mu-type opioid receptor, sequence (P35372 whole entry): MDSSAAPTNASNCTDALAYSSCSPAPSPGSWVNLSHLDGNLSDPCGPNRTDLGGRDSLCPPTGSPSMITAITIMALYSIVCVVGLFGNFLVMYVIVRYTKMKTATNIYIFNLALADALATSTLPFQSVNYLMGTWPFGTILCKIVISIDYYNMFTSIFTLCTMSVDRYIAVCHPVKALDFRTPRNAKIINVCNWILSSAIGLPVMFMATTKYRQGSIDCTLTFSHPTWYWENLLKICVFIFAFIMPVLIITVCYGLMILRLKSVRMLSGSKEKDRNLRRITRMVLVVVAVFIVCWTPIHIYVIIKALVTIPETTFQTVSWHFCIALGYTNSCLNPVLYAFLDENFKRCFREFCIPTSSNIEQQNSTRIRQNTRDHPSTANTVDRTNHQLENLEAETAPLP

[8] = biological target: T4, Kappa-type opioid receptor (Homo sapiens, UniProt P41145); test: SAR analysis of small molecule antagonists of the kappa opioid receptor via a luminescent beta-arrestin assay - Set 3. [Related pubchem assays (depositor defined):AID1777, AID1778, AID1785, AID1786, AID1966, AID2133, AID2136, AID2285, AID2495]; assay type: functional
T4 sequence (P41145 whole entry): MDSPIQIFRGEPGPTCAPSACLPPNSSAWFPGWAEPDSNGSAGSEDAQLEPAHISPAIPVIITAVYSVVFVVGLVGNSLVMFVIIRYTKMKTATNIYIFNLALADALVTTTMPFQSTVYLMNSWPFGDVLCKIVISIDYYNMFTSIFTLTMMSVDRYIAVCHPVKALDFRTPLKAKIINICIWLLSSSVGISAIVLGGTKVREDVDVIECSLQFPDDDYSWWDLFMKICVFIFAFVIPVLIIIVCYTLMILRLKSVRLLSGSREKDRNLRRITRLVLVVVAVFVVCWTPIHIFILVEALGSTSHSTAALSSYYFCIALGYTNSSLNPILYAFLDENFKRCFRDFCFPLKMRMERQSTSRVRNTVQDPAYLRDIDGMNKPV

[9] = biological target: T4, Kappa-type opioid receptor; test: SAR analysis of Antagonists of the Kappa Opioid Receptor (KOR) using an Image-Based Assay - Set 3. [Related pubchem assays (depositor defined):AID1777, AID1785]; assay type: functional

N=C1c2ccccc2CN1c1ccc(S(=O)(=O)N2CCCCC2)cc1
EC50 (Troponin, cardiac muscle): > 71.5 µM (inactive)

CC1(C(=O)NC(=S)NNC(=O)c2ccncc2)CCCCC1
EC50 (Streptokinase A): > 150 µM (not active) | EC50 [1]: 4.91 µM (active) | CC50 [2]: > 20 µM (active) | EC50 [3]: 1.59 µM (active) | IC50 (cells): 1.06 µM (active) | EC50 [4]: 11.9 µM (active) | CC50 [5]: 13.4 µM (active) | EC50 (Streptococcus): 21.1 µM (active) | CC50 [6]: 9 µM (active) | CC50 (Vero): > 25 µM (active)

COc1ccc(S(=O)(=O)NCc2ccc(C(=O)NCCN(Cc3ccc(Br)cc3)C(C)C)cc2)cc1
IC50 [7]: > 32 µM (inactive) | IC50 (Mu-type opioid receptor): > 32 µM (inactive) | IC50 [8]: 13.5 µM (inactive) | IC50 [9]: 1.38 µM (active)

Cc1cccc(S(=O)(=O)NCc2ccc(C(=O)NCCN(Cc3ccccc3)C(C)C)cc2)c1
IC50 [7]: > 32 µM (inactive) | IC50 (Mu-type opioid receptor): 7.99 µM (active) | IC50 [8]: 2.32 µM (active) | IC50 [9]: 0.872 µM (active)
